Assay results: PMC7550916 (Computational and Structural Biotechnology Journal, 2020)

Assays:
[1] = system: human A2A^Δ40R (pHALO-tagged); type: binding
[2] = system: non-transfected HEK-293T cells; experiment: ERK1/2 phosphorylation in non-transfected cells; type: cell-based, human; details: non-transfected HEK-293T cells (Fig. S1A)
A2AR = A2AR (Homo sapiens, UniProt P29274); experiment: cAMP determination; details: against all agonists (Fig. S8)
Sequence of A2AR (P29274 whole entry): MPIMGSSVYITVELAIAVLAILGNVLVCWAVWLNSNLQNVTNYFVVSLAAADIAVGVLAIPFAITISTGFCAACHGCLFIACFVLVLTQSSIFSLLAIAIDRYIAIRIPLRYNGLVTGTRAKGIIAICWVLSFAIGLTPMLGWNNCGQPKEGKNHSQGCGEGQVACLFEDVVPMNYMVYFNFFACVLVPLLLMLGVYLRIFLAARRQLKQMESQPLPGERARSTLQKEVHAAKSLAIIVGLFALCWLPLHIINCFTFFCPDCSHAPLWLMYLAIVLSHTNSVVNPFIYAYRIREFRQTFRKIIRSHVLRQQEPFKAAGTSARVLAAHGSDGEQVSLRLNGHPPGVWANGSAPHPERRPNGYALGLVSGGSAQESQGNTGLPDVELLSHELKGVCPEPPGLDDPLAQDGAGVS

Structure (SMILES)	ΔΔG (binding free energy difference between wild type and truncated receptor) [1]	ERK1/2 phosphorylation vs basal [2]	effect of antagonist on agonist-induced cAMP production (A2AR)
CCNC(=O)[C@H]1O[C@@H](n2cnc3c(N)nc(NCCc4ccc(CCC(=O)O)cc4)nc32)[C@H](O)[C@@H]1O [CGS-21680]	2.1 kJ/mol	not significantly different to the basal condition	
Nc1nc2c(cnn2CCc2ccccc2)c2nc(-c3ccco3)nn12 [SCH-58261]			blockade of cAMP production
